Results from patent publication US20220186186A1, “COMPOSITION FOR INDUCING DIRECT CONVERSION OF SOMATIC CELL INTO COMMON MYELOID PROGENITOR AND USE THEREOF” (KOREA INSTITUTE OF SCIENCE AND TECHNOLOGY, priority 2020, published 2022).

System: neonatal fibroblasts (HDF-N)
Assay: Direct conversion of neonatal fibroblasts to CMP cells, marker expression by flow cytometry (FACS)
Type: cell-based, human
Method: Human dermal fibroblasts derived from human skin were purchased from ThermoFisher (USA). Human neonatal dermal fibroblasts (HDF-N; neonatal-C0045C) and human adult dermal fibroblasts (HDF-A; adult-C0135C) were purchased, respectively.
To confirm direct conversion potential of fibroblasts to CMP cells, flow cytometry (FACS) analyses were performed. Using the antibodies listed below, expression levels of proteins including the hematopoietic stem cell (HSC) membrane marker CD34, the blood cell membrane marker CD45, and the common myeloid progenitor (CMP) membrane marker CD14, were confirmed. The antibodies used are as follows: • FITC conjugated mouse anti-human CD34 monoclonal antibodies, eBioscience • APC conjugated mouse anti-human CD45 monoclonal antibodies, eBioscience • APC-eFluoro780 conjugated mouse anti-human CD14 monoclonal antibodies, eBioscience
Cells were dissociated into single cells with accutase and then washed with 1% FBS/PBS solution. After treatment with Fc blocker (BD Bioscience) for 10 minutes to prevent non-specific antigen binding, the cells were blocked for 15 minutes using 1% FBS/PBS solution. […] Subsequent to the reaction, the cells were washed twice with cold PBS solution and analyzed by flow cytometry using CytoFLEX by Beckman, and data were analyzed using the CytExpert program. […]

Structure (SMILES): Cc1cccc(-c2n[nH]cc2-c2ccc3ncccc3n2)n1 [Example 3-1, 2-[3-(6-methylpyridin-2-yl)-1H-pyrazol-4-yl]-1,5-naphthyridine]
- expression of the blood cell marker CD45 (28 days, inhibitor alone, Table 3 and FIG. 18): increase
- CD45-expressing cell (%) compared to negative control group (Cnt) (cultured 28 days in reprogramming media with the chemical composition, Table 3): 6.36%
